# Measured values: patent US20260028341A1, “IMIDAZOTRIAZINE DERIVATIVES AS IL-17 MODULATORS” (UCB BIOPHARMA SRL, priority 2022, published 2026)
# Target: T1, IL-17A (Homo sapiens, UniProt Q16552)
# T1 sequence (Q16552 24-155): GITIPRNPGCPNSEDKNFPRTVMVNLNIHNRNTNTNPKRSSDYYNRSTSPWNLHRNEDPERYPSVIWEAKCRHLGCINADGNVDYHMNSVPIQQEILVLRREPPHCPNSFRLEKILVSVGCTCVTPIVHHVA
# Assay: Inhibition of IL-17A induced IL-6 release from dermal fibroblast cell line (HDF cell line assay)
# Format: cell-based
# Conditions: HDF cells stimulated with IL-17A (50 pM) plus TNF-α (25 pM); IL-6 release measured by HTRF
# Description: Inhibition of IL-17A Induced IL-6 Release from Dermal Fibroblast Cell Line
# The purpose of this assay is to test the neutralising ability to IL-17 proteins, in a human primary cell system. Stimulation of normal human dermal fibroblasts (HDF) with IL-17 alone produces only a very weak signal but in combination with certain other cytokines, such as TNFα, a synergistic effect can be seen in the production of inflammatory cytokines, i.e. IL-6.
# HDFs were stimulated with IL-17A (50 pM) in combination with TNF-α (25 pM). The resultant IL-6 response was then measured using a homogenous time-resolved FRET kit from Cisbio. The kit utilises two monoclonal antibodies, one labelled with Eu-Cryptate (Donor) and the second with d2 or XL665 (Acceptor). The intensity of the signal is proportional to the concentration of IL-6 present in the sample (Ratio is calculated by 665/620×104).
# The ability of a compound to inhibit IL-17 induced IL-6 release from human dermal fibroblasts is measured in this assay.
# HDF cells (Sigma #106-05n) were cultured in complete media (DMEM+10% FCS+2 mM L-glutamine) and maintained in a tissue culture flask using standard techniques. Cells were harvested from the tissue culture flask on the morning of the assay using TrypLE (Invitrogen #12605036). The TrypLE was neutralised using complete medium (45 mL) and the cells were centrifuged at 300×g for 3 minutes. The cells were re-suspended in complete media (5 mL) counted and adjusted to a concentration of 3.125×10^4 cells/mL before being added to the 384 well assay plate (Corning #3701) at 40 μL per well. The cells were left for a minimum of three hours, at 37° C./5% CO2, to adhere to the plate.
# Compounds were serially diluted in DMSO before receiving an aqueous dilution into a 384 well dilution plate (Greiner #781281), where […] from the titration plate was transferred to 45 μL of complete media and mixed to give a solution containing 10% DMSO.
# Mixtures of TNFα and IL-17 cytokine were prepared in complete media to final concentrations of TNFα 25 pM/IL-17A 50 pM, then 30 μL of the solution was added to a 384 well reagent plate (Greiner #781281).
# 10 μL from the aqueous dilution plate was transferred to the reagent plate containing 30 μL of the diluted cytokines, to give a 2.5% DMSO solution. The compounds were incubated with the cytokine mixtures for 5 h at 37° C. After the incubation, 10 μL was transferred to the assay plate, to give a 0.5% DMSO solution, then incubated for 18-20 h at 37° C./5% CO2.
# From the Cisbio IL-6 FRET kit (Cisbio #62IL6PEB) europium cryptate and Alexa 665 were diluted in reconstitution buffer and mixed 1:1, as per kit insert. To a white low volume 384 well plate (Greiner #784075) were added FRET reagents (10 μL), then supernatant (10 μL) was transferred from the assay plate to Greiner reagent plate. The mixture was incubated at room temperature for 3 h with gentle shaking (<400 rpm) before being read on a Synergy Neo 2 plate reader (Excitation: 330 nm; Emission: […]).
compound,measurement,value
"Cc1nonc1C(=O)N[C@H](c1cn2ncc(C3(N4CC(C(F)(F)F)NC4=O)CC(F)(F)C3)nc2n1)C1CCC(F)(F)CC1 (single isomer, unassigned) [Example 1]",IC50,6.31 nM
"Cc1nonc1C(=O)N[C@H](c1cn2ncc(C3(N4C[C@H](C(F)(F)F)NC4=O)CC(F)(F)C3)nc2n1)C1CCC(F)(F)CC1 (single isomer, unassigned) [Example 2]",IC50,1000 nM
"Cc1nonc1C(=O)N[C@H](c1cn2ncc(C3(N4C[C@@H](C(F)(F)F)NC4=O)CC3)nc2n1)C1CCC(F)(F)CC1 (single isomer, unassigned) [Example 3]",IC50,631 nM
"Cc1nonc1C(=O)N[C@H](c1cn2ncc(C3(N4C[C@@H](C(F)(F)F)NC4=O)CCOCC3)nc2n1)C1CCC(F)(F)CC1 (single isomer, unassigned) [Example 4]",IC50,3.98 nM
"Cc1nonc1C(=O)N[C@H](c1cn2ncc(C3(N4C[C@H](C(F)(F)F)NC4=O)CCOCC3)nc2n1)C1CCC(F)(F)CC1 (single isomer, unassigned) [Example 5]",IC50,2000 nM
"Cc1nonc1C(=O)N[C@H](c1cn2ncc([C@@]3(N4C[C@H](C(F)(F)F)NC4=O)CCOC3)nc2n1)C1CCC(F)(F)CC1 (single isomer, unassigned) [Example 13]",IC50,7940 nM
"Cc1nonc1C(=O)N[C@H](c1cn2ncc(C3(N4C[C@@H](C(F)(F)F)NC4=O)CCN(CC(C)(F)F)CC3)nc2n1)C1CCC(F)(F)CC1 (single isomer, unassigned) [Example 14]",IC50,3.98 nM
"Cc1nonc1C(=O)N[C@H](c1cn2ncc(C3(N4C[C@H](C(F)(F)F)NC4=O)CCN(CC(C)(F)F)CC3)nc2n1)C1CCC(F)(F)CC1 (single isomer, unassigned) [Example 15]",IC50,316 nM
"Cc1nonc1C(=O)N[C@H](c1cn2ncc(C3(N4C[C@@H](C(F)(F)F)NC4=O)CCN(CC(C)(C)F)CC3)nc2n1)C1CCC(F)(F)CC1 (single isomer, unassigned) [Example 16]",IC50,3.98 nM
"Cc1nonc1C(=O)N[C@H](c1cn2ncc(C3(N4C[C@H](C(F)(F)F)NC4=O)CCN(CC(C)(C)F)CC3)nc2n1)C1CCC(F)(F)CC1 (single isomer, unassigned) [Example 17]",IC50,251 nM
"Cc1nonc1C(=O)N[C@H](c1cn2ncc(C3(N4C[C@@H](C(F)(F)F)NC4=O)CCN(C)CC3)nc2n1)C1CCC(F)(F)CC1 (single isomer, unassigned) [Example 18]",IC50,10 nM
"Cc1nonc1C(=O)N[C@H](c1cn2ncc(C3(N4C[C@H](C(F)(F)F)NC4=O)CCN(C)CC3)nc2n1)C1CCC(F)(F)CC1 (single isomer, unassigned) [Example 19]",IC50,200 nM
"Cc1nonc1C(=O)N[C@H](c1cn2ncc(C3(N4CC(C(F)(F)F)NC4=O)CCN(C(=O)OC(C)(C)C)CC3)nc2n1)C1CCC(F)(F)CC1 (stereo partly drawn) [Example 6, tert-Butyl 4-(6-{(S)-(4,4-difluorocyclohexyl)[(4-methyl-1,2,5-oxadiazole-3-carbonyl)-amino]methyl}imidazo[1,2-b][1,2,4]triazin-3-yl)-4-[2-oxo-4-(trifluoromethyl)-imidazolidin-1-yl]piperidine-1-carboxylate]",IC50,7.94 nM
"Cc1nonc1C(=O)N[C@H](c1cn2ncc(C3(N4CC(C(F)(F)F)NC4=O)CCNCC3)nc2n1)C1CCC(F)(F)CC1 (stereo partly drawn) [Example 7, N—[(S)-(4,4-Difluorocyclohexyl)(3-{4-[2-oxo-4-(trifluoromethyl)imidazolidin-1-yl]-piperidin-4-yl}imidazo[1,2-b][1,2,4]triazin-6-yl)methyl]-4-methyl-1,2,5-oxadiazole-3-carboxamide]",IC50,31.6 nM
"N—[(S)-(4,4-Difluorocyclohexyl)(3-{3-[(4R)-2-oxo-4-(trifluoromethyl)imidazolidin-1-yl]-oxetan-3-yl}imidazo[1,2-b][1,2,4]triazin-6-yl)methyl]-4-methyl-1,2,5-oxadiazole-3-carboxamide [Example 9]",pIC50,5.0
"N—[(S)-(4,4-Difluorocyclohexyl)(3-{3-[(4S)-2-oxo-4-(trifluoromethyl)imidazolidin-1-yl]-oxetan-3-yl}imidazo[1,2-b][1,2,4]triazin-6-yl)methyl]-4-methyl-1,2,5-oxadiazole-3-carboxamide [Example 8]",pIC50,7.5
"N—[(S)-(4,4-Difluorocyclohexyl)(3-{(3R)-3-[(4R)-2-oxo-4-(trifluoromethyl)imidazolidin-1-yl]tetrahydrofuran-3-yl}imidazo[1,2-b][1,2,4]triazin-6-yl)methyl]-4-methyl-1,2,5-oxadiazole-3-carboxamide [Example 12]",pIC50,6.2
"N—[(S)-(4,4-Difluorocyclohexyl)(3-{(3R)-3-[(4S)-2-oxo-4-(trifluoromethyl)imidazolidin-1-yl]tetrahydrofuran-3-yl}imidazo[1,2-b][1,2,4]triazin-6-yl)methyl]-4-methyl-1,2,5-oxadiazole-3-carboxamide [Example 10]",pIC50,7.2
"N—[(S)-(4,4-Difluorocyclohexyl)(3-{(3S)-3-f[(4S)-2-oxo-4-(trifluoromethyl)imidazolidin-1-yl]tetrahydrofuran-3-yl}imidazo[1,2-b][1,2,4]triazin-6-yl)methyl]-4-methyl-1,2,5-oxadiazole-3-carboxamide [Example 11]",pIC50,8.0
